One data set has as its target recombinant p300 (Homo sapiens (Human), UniProt Q09472). Description: HAT activity inhibition experiment (SensoLyte HAT(p300) Assay Kit). The following applies: recombinant p300, histone H3 peptide, acetyl CoA. Type of data set: biochemical. The procedure, abridged:
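Recombinant human p300 preincubated with compound 10 min at room temperature, then acetyl-CoA and histone H3 peptide added and reacted 30 min at 37 °C. After stop, developer added for 30 min at room temperature in the dark; fluorescence read at Ex 389/Em 513 nm.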

In a further data set the target is hSERT (Homo sapiens (Human), UniProt P31645). As to the kind of experiment: Serotonin receptor inhibitory activity evaluation (binding assay, HEK293/hSERT membranes). The following applies: HEK293/hSERT membrane preparation, [3H]Paroxetin. How it is done: The binding evaluation assay was outsourced to Eurofins. Specifically, HEK293/hSERT cells were homogenized in a buffer consisting of 100 mmol/L NaCl, 1 μmol/L Leupeptin, 10 μmol/L PMSF, and 50 mmol/L Tris-HCl (pH7.4). The membrane pellet obtained by centrifugation was resuspended in an incubation buffer consisting of 50 mmol/L Tris-HCl (pH 7.4), 120 mmol/L NaCl, and 5 mmol/L KCl to prepare a membrane preparation. The test compound (1-10 μmol/L DMSO solution), the membrane preparation, and 0.4 nmol/L [^3H]Paroxetin were mixed and incubated at 25° C. for 60 minutes. The cell membrane-[^3H]Paroxetin complex was bound to a GF/B filter mat by vacuum filtration and washed with 50 mmol/L Tris-HCl (pH 7.4). The effect on the receptor was assessed by measuring radioactivity using a scintillation counter.

The subject of a further data set is G-401 xenograft. As to the kind of experiment: Drug efficacy evaluation by oral administration using G-401 xenograft model mice. The class given is in vivo. The following applies: for antitumor effect (in words): G-401 xenograft model, oral administration; for T/C: oral twice a day. As to the method: G-401 cells (ATCC) were intradermally transplanted into 4-7-week-old BALB/cAnNCrj-nu/nu mice (CAnN.Cg-Foxn1/CrlCrlj, Jackson Laboratory Japan) at 5×10^5 cells/mouse. After confirming the engraftment of G-401 cells 10-40 days after transplantation, the test compound suspended in a solvent such as 0.5% methylcellulose solution was orally administered twice a day at a dose of 1-100 mg/kg. The tumor volume was measured over time from the start of administration, and the effect of tumor volume reduction by administration of the test compound was evaluated. The tumor volume can be calculated from the following equation using the minor axis and major axis of the tumor measured with an electronic caliper (Mitutoyo).
A control administration group administered with only a solvent such as 0.5% methylcellulose solution and a test compound administration group were compared, and the antitumor effect was evaluated by calculating T/C from the following equation.

The next data set concerns G-401 cells. As to the kind of experiment: Cell proliferation inhibition experiment using G-401 cells. Type of data set: cell-based. The following applies: Homo sapiens, 72 h, cultured for 3 days, CellTiter-Glo. The procedure, abridged: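 Malignant rhabdoid tumor-derived cells, grown in McCoy's 5A with 10% FBS, were seeded at 500 cells/well and dosed one day later (final DMSO 0.1%). After 3 days of culture at 37° C, viability was read by CellTiter-Glo luminescence.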

A further data set in a line: Solubility test. The class given is physicochemical. The settings on record: aqueous buffer, thermodynamic from solid, 5° C., overnight. As to the method:
The solubility was measured for Examples 7, 10, 20, 23, 24, and 30 to 34, Comparative Example 1, and Comparative Example 2. The test compound was added to 10 mmol/L glycine buffer (pH 2.0) and 10 mmol/L citrate buffer (pH 3.0), and the mixture was stored in a thermostatic chamber at 5° C. After standing overnight, the mixture was filtered through a membrane filter, and the concentration of the filtrate was measured by HPLC.

Data set [1] can be described thus: Membrane permeability test (PAMPA). Type of data set: in vitro ADME. In a few lines:
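Donor compartment held compound in system solution over a GIT Lipid-0 membrane, with sink buffer on the acceptor side; incubation 4 h at 37° C. Donor and acceptor concentrations were read by UV (190-500 nm), or by LC-MS for weakly absorbing compounds, and Pe (10^−6 cm/sec) was calculated.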
For orientation: The PAMPA barrier holds no transporters, so it reflects passive diffusion.

For a further data set, the system named is RMGI cells. Description: Cell proliferation inhibition experiment using RMGI cells. The class given is cell-based. The settings on record: Homo sapiens, RMG-I, 144 h, cultured for 6 days, CellTiter-Glo. As to the method:
RMGI cells (derived from ovarian cancer) were obtained from JCRB cell bank. RMGI cells were cultured in Ham's F12 medium containing 10% fetal bovine serum and 1% penicillin/streptomycin under conditions of 37° C. and 5% CO2.
200 cells per well were seeded in a 384-well plate. One day after seeding, Examples 3, 7, 9, 10, 11, 20, and 23 to 25 were added so that the final concentration of DMSO was 0.1%, and the cells were cultured for 6 days. After the culture was completed, the cell viability was measured using CellTiter-Glo Luminescent Cell Viability Assay (Promega, G7570).
(Cellular ATP, detected with luciferase, serves as a proxy for viable cell number.)

Another data set deals with Kuramochi cells. Description: Cell proliferation inhibition experiment using Kuramochi cells. The class given is cell-based. The settings on record: 144 h, cultured for 6 days, CellTiter-Glo. How it is done: Kuramochi cells (derived from ovarian cancer) were obtained from JCRB (Japanese Collection of Research Bioresources) cell bank. Kuramochi cells were cultured in RPMI-1640 medium containing 10% fetal bovine serum and 1% penicillin/streptomycin under conditions of 37° C. and 5% CO2.
500 cells per well were seeded in a 384-well plate. One day after seeding, Examples 3, 7, 9, 10, 11, 20, 23 to 25, and 30 to 34 were added so that the final concentration of DMSO was 0.1%, and the cells were cultured for 6 days. After the culture was completed, the cell viability was measured using CellTiter-Glo Luminescent Cell Viability Assay (Promega, G7570).

Where [2] appears, read: 10 mmol/L citrate buffer (pH 3.0), read-out: Solubility in pH 3.0 buffer.
The mark [3] stands for this setting: 10 mmol/L glycine buffer (pH 2.0), read-out: Solubility in pH 2.0 buffer.
Setting [4] is: pH 5.0, 37° C., read-out: pH 5.0 Pe.
[5] abbreviates: pH 7.4, 37° C., read-out: pH 7.4 Pe.

Values after ≈ are worked out from the molar mass of the structure shown. Like-named read-outs stand apart in the source and are kept apart here.

As usually defined, the IC50 is the midpoint of a concentration-inhibition curve. What is called inhibition is the drop in the measured response relative to a control, in per cent. One may read the T/C as the ratio of treated to control. The term solubility denotes the concentration that dissolves in the medium under given conditions.

Chain of hSERT (P31645 whole entry): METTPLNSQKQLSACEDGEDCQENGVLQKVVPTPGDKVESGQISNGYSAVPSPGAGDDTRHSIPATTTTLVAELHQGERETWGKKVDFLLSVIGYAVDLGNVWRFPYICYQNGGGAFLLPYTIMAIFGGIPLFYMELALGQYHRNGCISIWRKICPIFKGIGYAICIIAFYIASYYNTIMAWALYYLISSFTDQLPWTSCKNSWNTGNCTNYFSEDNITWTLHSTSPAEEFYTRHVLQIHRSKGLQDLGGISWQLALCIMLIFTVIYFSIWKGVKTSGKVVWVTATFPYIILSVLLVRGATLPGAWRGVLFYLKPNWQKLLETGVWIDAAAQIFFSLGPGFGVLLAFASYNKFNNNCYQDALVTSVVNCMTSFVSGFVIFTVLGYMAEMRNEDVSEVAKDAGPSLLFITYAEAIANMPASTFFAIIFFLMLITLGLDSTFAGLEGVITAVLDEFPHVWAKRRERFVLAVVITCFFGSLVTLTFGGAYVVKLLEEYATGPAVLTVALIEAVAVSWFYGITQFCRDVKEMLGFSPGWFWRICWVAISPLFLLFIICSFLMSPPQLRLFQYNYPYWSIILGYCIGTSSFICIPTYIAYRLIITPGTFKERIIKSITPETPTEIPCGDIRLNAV
Chain of recombinant p300 (Q09472 whole entry): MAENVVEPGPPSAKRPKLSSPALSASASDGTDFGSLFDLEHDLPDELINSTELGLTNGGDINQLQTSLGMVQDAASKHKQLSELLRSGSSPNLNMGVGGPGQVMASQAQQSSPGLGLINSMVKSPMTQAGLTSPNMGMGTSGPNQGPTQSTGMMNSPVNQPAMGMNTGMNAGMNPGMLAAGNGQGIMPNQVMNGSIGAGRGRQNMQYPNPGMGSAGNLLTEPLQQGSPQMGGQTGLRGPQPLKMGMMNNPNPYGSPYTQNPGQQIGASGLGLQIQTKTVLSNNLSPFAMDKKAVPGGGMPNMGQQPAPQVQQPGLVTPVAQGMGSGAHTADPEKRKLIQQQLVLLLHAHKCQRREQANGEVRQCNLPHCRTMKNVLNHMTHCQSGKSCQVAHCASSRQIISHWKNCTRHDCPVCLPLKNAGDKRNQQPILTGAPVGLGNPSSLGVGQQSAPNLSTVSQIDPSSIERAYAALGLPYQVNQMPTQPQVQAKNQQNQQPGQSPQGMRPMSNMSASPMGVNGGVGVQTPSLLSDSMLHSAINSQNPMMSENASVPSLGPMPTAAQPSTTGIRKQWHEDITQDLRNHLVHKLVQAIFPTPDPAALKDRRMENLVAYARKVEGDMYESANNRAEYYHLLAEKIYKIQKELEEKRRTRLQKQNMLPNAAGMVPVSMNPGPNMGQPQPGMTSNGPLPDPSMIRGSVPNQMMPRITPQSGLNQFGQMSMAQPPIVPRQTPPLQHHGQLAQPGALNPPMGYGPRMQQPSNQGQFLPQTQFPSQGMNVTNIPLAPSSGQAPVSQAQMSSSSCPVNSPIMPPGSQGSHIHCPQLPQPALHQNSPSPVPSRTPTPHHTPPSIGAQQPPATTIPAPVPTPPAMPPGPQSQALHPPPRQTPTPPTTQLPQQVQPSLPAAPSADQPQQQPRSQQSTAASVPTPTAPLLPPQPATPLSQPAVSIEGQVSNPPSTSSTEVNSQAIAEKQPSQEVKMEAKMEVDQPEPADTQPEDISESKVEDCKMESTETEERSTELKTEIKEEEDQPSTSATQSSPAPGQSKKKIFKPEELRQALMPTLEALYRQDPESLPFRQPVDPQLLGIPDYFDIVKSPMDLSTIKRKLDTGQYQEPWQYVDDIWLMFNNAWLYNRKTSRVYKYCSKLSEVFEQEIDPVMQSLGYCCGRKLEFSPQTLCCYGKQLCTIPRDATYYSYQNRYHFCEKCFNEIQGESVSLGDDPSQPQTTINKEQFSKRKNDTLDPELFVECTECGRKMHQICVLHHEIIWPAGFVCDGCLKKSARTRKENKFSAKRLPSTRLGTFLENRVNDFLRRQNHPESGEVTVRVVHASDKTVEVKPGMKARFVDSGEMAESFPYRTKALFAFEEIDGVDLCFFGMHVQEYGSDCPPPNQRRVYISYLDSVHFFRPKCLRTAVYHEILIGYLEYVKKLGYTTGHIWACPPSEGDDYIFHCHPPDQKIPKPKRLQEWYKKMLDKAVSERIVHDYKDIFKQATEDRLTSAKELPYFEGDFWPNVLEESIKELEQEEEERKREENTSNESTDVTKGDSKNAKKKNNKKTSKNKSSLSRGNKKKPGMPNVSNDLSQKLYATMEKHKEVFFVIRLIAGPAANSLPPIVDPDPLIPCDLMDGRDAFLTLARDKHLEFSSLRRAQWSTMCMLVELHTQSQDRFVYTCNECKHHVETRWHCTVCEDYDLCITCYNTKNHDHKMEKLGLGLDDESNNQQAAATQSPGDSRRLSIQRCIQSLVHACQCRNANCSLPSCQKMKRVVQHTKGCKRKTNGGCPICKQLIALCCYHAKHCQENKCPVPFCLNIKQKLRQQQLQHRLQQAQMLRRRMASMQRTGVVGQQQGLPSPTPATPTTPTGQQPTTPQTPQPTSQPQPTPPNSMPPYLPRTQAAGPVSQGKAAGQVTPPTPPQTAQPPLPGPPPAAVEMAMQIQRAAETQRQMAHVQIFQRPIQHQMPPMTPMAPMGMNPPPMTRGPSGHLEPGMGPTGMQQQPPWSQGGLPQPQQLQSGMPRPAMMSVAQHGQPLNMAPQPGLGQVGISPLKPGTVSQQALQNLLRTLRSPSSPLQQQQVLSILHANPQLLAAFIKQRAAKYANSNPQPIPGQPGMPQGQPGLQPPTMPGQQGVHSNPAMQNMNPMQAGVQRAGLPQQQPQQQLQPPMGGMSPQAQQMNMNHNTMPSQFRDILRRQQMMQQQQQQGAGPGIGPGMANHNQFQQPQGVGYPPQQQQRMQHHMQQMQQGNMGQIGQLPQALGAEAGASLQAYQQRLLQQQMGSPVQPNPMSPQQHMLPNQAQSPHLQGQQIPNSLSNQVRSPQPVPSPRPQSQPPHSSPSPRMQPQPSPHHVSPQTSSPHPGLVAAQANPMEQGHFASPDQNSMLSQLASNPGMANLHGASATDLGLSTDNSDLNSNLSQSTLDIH

Regarding `CN1CC(N(Cc2ccc(F)cc2)C(=O)CN2C(=O)N[C@]3(C[C@@H](F)c4cc(-c5cnn(C)c5)ccc43)C2=O)(C(F)(F)F)C1` [Example 10, 2-[(1′S,3′R)-3′-fluoro-5′-(1-methyl-1H-pyrazol-4-yl)-2,5-dioxo-2′,3′-dihydrospiro[imidazolidine-4,1′-inden]-1-yl]-N-[(4-fluorophenyl)methyl]-N-[1-methyl-3-(trifluoromethyl)azetidin-3-yl]acetamide], the IC50 at recombinant p300 was determined as 0.4 nM; with G-401 cells it was 10 nM; with RMGI cells, 6 nM; in the data set with Kuramochi cells, 66 nM. The inhibition at 10 µM at hSERT was -5%. For the same molecule, the “antitumor effect (in words)” value in the data set with G-401 xenograft is “strong antitumor effects”. Besides, the T/C is 53% in the data set with G-401 xenograft (3 mg/kg, 21 days) and 102% in the data set on G-401 xenograft (10 mg/kg, 21 days). Besides, the solubility is 1600 µg/mL (≈ 2.66 mM) in the data set “Solubility test” (setting [2]) and greater than 10000 µg/mL in the data set “Solubility test” (setting [3]). Moreover, the values for the Papp at 4 h in data set [1] (setting [4]) and in data set [1] (setting [5]) were 23.9 ×10⁻⁶ cm/s and 28.6 ×10⁻⁶ cm/s, respectively.
For `O=C1N[C@]2(C[C@@H](F)c3cc(-c4cnn(C5CCN(C6COC6)CC5)c4)ccc32)C(=O)N1CC(=O)N(Cc1ccc(F)cn1)C1(C(F)(F)F)COC1` [Example 23, 2-[(1′S,3′R)-3′-fluoro-5′-{1-[1-(oxetan-3-yl)piperidin-4-yl]-1H-pyrazol-4-yl}-2,5-dioxo-2′,3′-dihydrospiro[imidazolidine-4,1′-inden]-1-yl]-N-[(5-fluoropyridin-2-yl)methyl]-N-[3-(trifluoromethyl)oxetan-3-yl]acetamide], the IC50 at recombinant p300 turned out to be 9 nM; in the data set on G-401 cells it was 82 nM; with RMGI cells it was 54 nM; in the data set with Kuramochi cells, 591 nM. Moreover, the inhibition at 10 µM at hSERT came out at 3%. Also, the “antitumor effect (in words)” value with G-401 xenograft is reported as “strong antitumor effects”. In the data set with G-401 xenograft (20 mg/kg, 21 days), this molecule displayed a T/C of 81%. The solubility in “Solubility test” (setting [2]) is 8600 µg/mL (≈ 12 mM); in the data set “Solubility test” (setting [3]), greater than 10000 µg/mL. The Papp at 4 h was 3.2 ×10⁻⁶ cm/s in data set [1] (setting [4]) and 7 ×10⁻⁶ cm/s in data set [1] (setting [5]).
For `CN1CC(N(Cc2ccc(F)cn2)C(=O)CN2C(=O)N[C@]3(C[C@@H](F)c4cc(-c5cnn(C6COC6)c5)ccc43)C2=O)(C(F)(F)F)C1` [Example 24, 2-{(1′S,3′R)-3′-fluoro-5′-[1-(oxetan-3-yl)-1H-pyrazol-4-yl]-2,5-dioxo-2′,3′-dihydrospiro[imidazolidine-4,1′-inden]-1-yl}-N-[(5-fluoropyridin-2-yl)methyl]-N-[1-methyl-3-(trifluoromethyl)azetidin-3-yl]acetamide], the IC50 stood at 9.8 nM at recombinant p300, 36 nM with G-401 cells, 37 nM in the data set on RMGI cells and 399 nM in the data set with Kuramochi cells. Further, the inhibition at 10 µM at hSERT was determined as 15%. Also, the solubility in the data set “Solubility test” (setting [2]) and in “Solubility test” (setting [3]) was greater than 10000 µg/mL throughout. Further, the figures for the Papp at 4 h in data set [1] (setting [4]) and in data set [1] (setting [5]) were 1.6 ×10⁻⁶ cm/s and 8.2 ×10⁻⁶ cm/s, respectively.
With `CN1CC(N(Cc2ccc(F)cn2)C(=O)CN2C(=O)N[C@]3(C[C@@H](F)c4cc(-c5cnn(C)c5)ccc43)C2=O)(C(F)(F)F)C1` [Example 20, 2-[(1′S,3′R)-3′-fluoro-5′-(1-methyl-1H-pyrazol-4-yl)-2,5-dioxo-2′,3′-dihydrospiro[imidazolidine-4,1′-inden]-1-yl]-N-[(5-fluoropyridin-2-yl)methyl]-N-[1-methyl-3-(trifluoromethyl)azetidin-3-yl]acetamide], the IC50 at recombinant p300 is 1.7 nM; in the data set on G-401 cells, 36 nM; in the data set on RMGI cells, 43 nM; in the data set with Kuramochi cells, 320 nM. For the same molecule, the inhibition at 10 µM on hSERT was -1%. In addition, the “antitumor effect (in words)” value in the data set on G-401 xenograft is on record as “strong antitumor effects”. The T/C in the data set with G-401 xenograft (20 mg/kg, 21 days) was found to be 80%; in the data set on G-401 xenograft (30 mg/kg, 21 days), 89%. Also, the solubility was 8600 µg/mL (≈ 14.2 mM) in “Solubility test” (setting [2]) and greater than 10000 µg/mL in the data set “Solubility test” (setting [3]). For the same molecule, the Papp at 4 h in data set [1] (setting [4]) worked out at 7.8 ×10⁻⁶ cm/s; in data set [1] (setting [5]) it was 21.9 ×10⁻⁶ cm/s.
For `O=C1N[C@]2(C[C@@H](F)c3cc(-c4cnn(C5CN(C6COC6)C5)c4)ccc32)C(=O)N1CC(=O)N(Cc1ccc(F)cn1)C1(C(F)(F)F)COC1` [Example 7, 2-[(1′S,3′R)-3′-fluoro-5′-{1-[1-(oxetan-3-yl)azetidin-3-yl]-1H-pyrazol-4-yl}-2,5-dioxo-2′,3′-dihydrospiro[imidazolidine-4,1′-inden]-1-yl]-N-[(5-fluoropyridin-2-yl)methyl]-N-[3-(trifluoromethyl)oxetan-3-yl]acetamide], the IC50 at recombinant p300 came to 0.9 nM; in the data set on G-401 cells it was 44 nM; in the data set on RMGI cells, 35 nM; in the data set on Kuramochi cells it was 298 nM. The inhibition at 10 µM on hSERT is -1%. For the same molecule, the “antitumor effect (in words)” value in the data set on G-401 xenograft is on record as “strong antitumor effects”. Besides, the T/C in the data set on G-401 xenograft (10 mg/kg, 34 days) was found to be 31%; in the data set on G-401 xenograft (30 mg/kg, 34 days) it was 80%. The solubility in “Solubility test” (setting [2]) is 4600 µg/mL (≈ 6.69 mM); in “Solubility test” (setting [3]), greater than 10000 µg/mL. The Papp at 4 h in data set [1] (setting [4]) was determined as 3 ×10⁻⁶ cm/s; in data set [1] (setting [5]), 5.1 ×10⁻⁶ cm/s.

The record behind these values is patent publication US20250257055A1, “TERTIARY AMIDE DERIVATIVES SUBSTITUTED WITH 4-MEMBERED RING STRUCTURE” (Sumitomo Pharma Co., Ltd., priority 2024, published 2025).
